Assay results: US20250101041A1, “POSITIVE ALLOSTERIC MODULATORS OF THE MUSCARINIC ACETYLCHOLINE RECEPTOR M4” (Vanderbilt University, priority 2022, published 2025)

Molecular target: T1, human mAChR M4 (Homo sapiens, UniProt P08173)
T1 construct: expressed in transfected cells; host or cells: CHO-K1 (American Type Culture Collection), stably expressing hM4 and Gqi5
T1 sequence (P08173 1-479): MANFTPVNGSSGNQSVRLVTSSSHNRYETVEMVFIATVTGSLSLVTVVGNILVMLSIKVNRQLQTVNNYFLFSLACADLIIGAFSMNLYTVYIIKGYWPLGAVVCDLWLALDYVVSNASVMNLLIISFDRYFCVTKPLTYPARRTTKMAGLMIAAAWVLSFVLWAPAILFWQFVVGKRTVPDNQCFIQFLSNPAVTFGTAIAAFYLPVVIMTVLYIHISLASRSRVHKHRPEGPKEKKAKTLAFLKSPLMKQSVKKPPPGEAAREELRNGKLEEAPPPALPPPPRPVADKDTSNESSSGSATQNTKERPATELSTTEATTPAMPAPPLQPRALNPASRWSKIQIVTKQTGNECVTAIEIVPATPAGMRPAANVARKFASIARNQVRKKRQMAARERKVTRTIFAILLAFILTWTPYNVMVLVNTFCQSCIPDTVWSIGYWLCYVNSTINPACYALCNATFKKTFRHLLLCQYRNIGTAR
Assay: mAChR M4 cell-based functional assay: calcium mobilization (Fluo-4, FDSS), potentiation of EC20 acetylcholine response in hM4-Gqi5 CHO-K1 cells
Settings: human M4; for Emax at 30 µM: CHO-K1, % ACh maximum at 30 μM; for EC50: potentiation of EC20 acetylcholine response, calcium mobilization
Procedure: Human and rat M4 cDNAs, along with the chimeric G protein Gqi5, were transfected into Chinese hamster ovary (CHO-K1) cells purchased from the American Type Culture Collection using Lipofectamine2000. hM4-Gqi5 cells were grown in Ham's F-12 medium containing 10% heat-inactivated fetal bovine serum (FBS), 20 mM HEPES, 50 μg/mL G418 sulfate, and 500 μg/mL Hygromycin B. rM4-Gqi5 cells were grown in DMEM containing 10% heat-inactivated FBS, 20 mM HEPES, 400 μg/mL G418 sulfate, and 500 μg/mL Hygromycin B.
For high throughput measurement of agonist-evoked increases in intracellular calcium, CHO-K1 cells stably expressing muscarinic receptors were plated in growth medium lacking G418 and hygromycin at 15,000 cells/20 μL/well in Greiner 384-well black-walled, tissue culture (TC)-treated, clear-bottom plates (VWR). Cells were incubated overnight at 37° C. and 5% CO2. The next day, cells were washed using an ELX 405 (BioTek) with assay buffer; the final volume was then aspirated to 20 μL. Next, 20 μL of a […] of Fluo-4/acetoxymethyl ester (Invitrogen, Carlsbad, CA), prepared as a 2.3 mM stock in DMSO and mixed in a 1:1 ratio with 10% (w/v) Pluronic F-127 and diluted in assay buffer, was added to the wells and the cell plates were incubated for 50 min at 37° C. and 5% CO2. Dye was removed by washing with the ELX 405 and the final volume was aspirated to 20 μL. Compound master plates were formatted in an 11 point concentration-response curve (CRC) format (1:3 dilutions) in 100% DMSO with a starting concentration of 10 mM using a BRAVO liquid handler (Agilent). Test compound CRCs were then transferred to daughter plates (240 nL) using the Echo acoustic plate reformatter (Labcyte, Sunnyvale, CA) and then diluted into assay buffer (40 μL) to a 2× stock using a Thermo Fisher Combi (Thermo Fisher Scientific, Waltham, MA).
Calcium flux was measured using the Functional Drug Screening System (FDSS) 6000 or 7000 (Hamamatsu Corporation, Tokyo, Japan) as an increase in the fluorescent static ratio. Compounds were applied to cells (20 μL, 2X) using the automated system of the FDSS at 2-4 seconds into the protocol and the data were collected at 1 Hz. At 144 seconds, 10 μL of an EC20 concentration of the muscarinic receptor agonist acetylcholine was added (5×), followed by the addition of 12 μL of an […] concentration of acetylcholine at the 230 second time point (5×). Agonist activity was analyzed as a concentration-dependent increase in calcium mobilization upon compound addition. Positive allosteric modulator activity was analyzed as a concentration-dependent increase in the EC20 acetylcholine response. Antagonist activity was analyzed as a concentration-dependent decrease in the EC20 acetylcholine response. Concentration-response curves were generated using a four-parameter logistical equation in XLFit curve fitting software (IDBS, Bridgewater, NJ) for Excel (Microsoft, Redmond, WA) or Prism (GraphPad Software, Inc., San Diego, CA).
Compounds were synthesized as described above. Activity (EC50 and Emax) was determined in the mAChR M4 cell-based functional assay as described above and the data are shown in Table 4. The compound number corresponds to the compound numbers used in Tables 1-3.

Emax at 30 µM	EC50	SMILES
81%	435 nM	Cc1cc2nccc(=O)n2nc1N1CCc2ncc(-c3cnn(C(F)F)c3C)cc2C1 [Compound 1-414, 7-(3-(1-(difluoromethyl)-5-methyl-1H-pyrazol-4-yl)-7,8-dihydro-1,6-naphthyridin-6(5H)-yl)-8-methyl-4H-pyrimido[1,2-b]pyridazin-4-one]
69%	247 nM	Cc1cc(Cl)ncc1-c1cnc2c(c1)CN(c1nn3c(=O)ccnc3cc1C)CC2 [Compound 1-333, 7-(3-(6-chloro-4-methylpyridin-3-yl)-7,8-dihydro-1,6-naphthyridin-6(5H)-yl)-8-methyl-4H-pyrimido[1,2-b]pyridazin-4-one]
87%	200 nM	Cc1cc2nc(C(=O)NCc3cncs3)cc(=O)n2nc1N1CCc2ncc(C(F)(F)F)cc2C1 [Compound 1-42, 8-methyl-4-oxo-N-(thiazol-5-ylmethyl)-7-(3-(trifluoromethyl)-7,8-dihydro-1,6-naphthyridin-6(5H)-yl)-4H-pyrimido[1,2-b]pyridazine-2-carboxamide]
94%	1 nM	Cc1cc2nc(C(F)F)cc(=O)n2nc1N1CCc2ncc(Nc3ccncc3F)cc2C1 [Compound 2-159, 2-(difluoromethyl)-7-(3-((3-fluoropyridin-4-yl)amino)-7,8-dihydro-1,6-naphthyridin-6(5H)-yl)-8-methyl-4H-pyrimido[1,2-b]pyridazin-4-one]
49%	1480 nM	Cc1cc2nccc(=O)n2nc1N1CCc2ncc(-c3cnc(F)c(Cl)c3)cc2C1 [Compound 1-326, 7-(3-(5-chloro-6-fluoropyridin-3-yl)-7,8-dihydro-1,6-naphthyridin-6(5H)-yl)-8-methyl-4H-pyrimido[1,2-b]pyridazin-4-one]
96%	112 nM	Cc1cc2nccc(=O)n2nc1N1CCc2ncc(Nc3cnccc3Cl)cc2C1 [Compound 2-135, 7-(3-((4-chloropyridin-3-yl)amino)-7,8-dihydro-1,6-naphthyridin-6(5H)-yl)-8-methyl-4H-pyrimido[1,2-b]pyridazin-4-one]
76%	99 nM	Cc1ccc(-c2cnc3c(c2)CN(c2nn4c(=O)ccnc4cc2C)CC3)cn1 [Compound 1-3, 8-methyl-7-(3-(6-methylpyridin-3-yl)-7,8-dihydro-1,6-naphthyridin-6(5H)-yl)-4H-pyrimido[1,2-b]pyridazin-4-one]
87%	228 nM	Cc1cc(=O)n2nc(N3CCc4ncc(-c5ccncc5C)cc4C3)c(C)cc2n1 [Compound 1-241, 2,8-dimethyl-7-(3-(3-methylpyridin-4-yl)-7,8-dihydro-1,6-naphthyridin-6(5H)-yl)-4H-pyrimido[1,2-b] pyridazin-4-one]
85%	230 nM	Cc1cc2nccc(=O)n2nc1N1CCc2ncc(Nc3cc(F)ccc3C#N)cc2C1 [Compound 2-81, 4-fluoro-2-((6-(8-methyl-4-oxo-4H-pyrimido[1,2-b]pyridazin-7-yl)-5,6,7,8-tetrahydro-1,6-naphthyridin-3-yl)amino)benzonitrile]
72%	284 nM	COCc1cc(=O)n2nc(N3CCc4ncc(-c5cnn(C)c5C)cc4C3)c(C)cc2n1 [Compound 1-366, 7-(3-(1,5-dimethyl-1H-pyrazol-4-yl)-7,8-dihydro-1,6-naphthyridin-6(5H)-yl)-2-(methoxymethyl)-8-methyl-4H-pyrimido[1,2-b]pyridazin-4-one]
89%	451 nM	Cc1c(N2CCc3ncc(-c4cccc(F)c4)cc3C2)nn2c(=O)cc(C(F)F)nc2c1C [Compound 1-306, 2-(difluoromethyl)-7-(3-(3-fluorophenyl)-7,8-dihydro-1,6-naphthyridin-6(5H)-yl)-8,9-dimethyl-4H-pyrimido[1,2-b]pyridazin-4-one]
88%	211 nM	COc1cnccc1-c1cnc2c(c1)CN(c1nn3c(=O)ccnc3c(C)c1C)CC2 [Compound 1-269, 7-(3-(3-methoxypyridin-4-yl)-7,8-dihydro-1,6-naphthyridin-6(5H)-yl)-8,9-dimethyl-4H-pyrimido[1,2-b]pyridazin-4-one]
84%	3410 nM	Cc1cc(=O)n2nc(N3CCc4ncc(-c5cncc(C(F)(F)F)c5)cc4C3)c(C)c(C)c2n1 [Compound 1-124, 2,8,9-trimethyl-7-(3-(5-(trifluoromethyl)pyridin-3-yl)-7,8-dihydro-1,6-naphthyridin-6(5H)-yl)-4H-pyrimido[1,2-b]pyridazin-4-one]
82%	1120 nM	Cc1cc2nccc(=O)n2nc1N1CCc2ncc(-c3cncc(C(C)(C)O)c3)cc2C1 [Compound 1-419, 7-(3-(5-(2-hydroxypropan-2-yl)pyridin-3-yl)-7,8-dihydro-1,6-naphthyridin-6(5H)-yl)-8-methyl-4H-pyrimido[1,2-b]pyridazin-4-one]
47%	2200 nM	Cc1cc2nccc(=O)n2nc1N1CCc2ncc(NC(=O)C3CCOCC3)cc2C1 [Compound 2-110, N-(6-(8-methyl-4-oxo-4H-pyrimido[1,2-b]pyridazin-7-yl)-5,6,7,8-tetrahydro-1,6-naphthyridin-3-yl)tetrahydro-2H-pyran-4-carboxamide]
57%	1120 nM	Cc1cc(=O)n2nc(N3CCc4ncc(-c5ccccc5C(F)(F)F)cc4C3)c(C)c(C)c2n1 [Compound 1-277, 2,8,9-trimethyl-7-(3-(2-(trifluoromethyl)phenyl)-7,8-dihydro-1,6-naphthyridin-6(5H)-yl)-4H-pyrimido[1,2-b] pyridazin-4-one]
99%	244 nM	Cc1cc2nccc(=O)n2nc1N1CCc2ncc(-c3ccc(F)c(Cl)c3)cc2C1 [Compound 1-59, 7-(3-(3-chloro-4-fluorophenyl)-7,8-dihydro-1,6-naphthyridin-6(5H)-yl)-8-methyl-4H-pyrimido[1,2-b]pyridazin-4-one]
68%	576 nM	COCc1cc(=O)n2nc(N3CCc4ncc(-c5cc(F)c(F)cc5F)cc4C3)c(C)cc2n1 [Compound 1-335, 2-(methoxymethyl)-8-methyl-7-(3-(2,4,5-trifluorophenyl)-7,8-dihydro-1,6-naphthyridin-6(5H)-yl)-4H-pyrimido[1,2-b]pyridazin-4-one]
91%	79 nM	Cc1cc2nccc(=O)n2nc1N1CCc2ncc(Nc3ccc(F)cc3)cc2C1 [Compound 2-63, 7-(3-((4-fluorophenyl)amino)-7,8-dihydro-1,6-naphthyridin-6(5H)-yl)-8-methyl-4H-pyrimido[1,2-b]pyridazin-4-one]
95%	205 nM	COCc1cc(=O)n2nc(N3CCc4ncc(-c5cnn6c5COCC6)cc4C3)c(C)c(C)c2n1 [Compound 1-380, 7-(3-(6,7-dihydro-4H-pyrazolo[5,1-c][1,4]oxazin-3-yl)-7,8-dihydro-1,6-naphthyridin-6(5H)-yl)-2-(methoxymethyl)-8,9-dimethyl-4H-pyrimido[1,2-b] pyridazin-4-one]
